The values that follow come from US8822517B2, “Arylosulfonamides for the treatment of CNS diseases” (Adamed SP. Z O.O., priority 2010, dated 2014).

Experiment [1] addresses T1, adrenergic α2C receptor (Homo sapiens, UniProt P18825).
T1 sequence (P18825 1-462): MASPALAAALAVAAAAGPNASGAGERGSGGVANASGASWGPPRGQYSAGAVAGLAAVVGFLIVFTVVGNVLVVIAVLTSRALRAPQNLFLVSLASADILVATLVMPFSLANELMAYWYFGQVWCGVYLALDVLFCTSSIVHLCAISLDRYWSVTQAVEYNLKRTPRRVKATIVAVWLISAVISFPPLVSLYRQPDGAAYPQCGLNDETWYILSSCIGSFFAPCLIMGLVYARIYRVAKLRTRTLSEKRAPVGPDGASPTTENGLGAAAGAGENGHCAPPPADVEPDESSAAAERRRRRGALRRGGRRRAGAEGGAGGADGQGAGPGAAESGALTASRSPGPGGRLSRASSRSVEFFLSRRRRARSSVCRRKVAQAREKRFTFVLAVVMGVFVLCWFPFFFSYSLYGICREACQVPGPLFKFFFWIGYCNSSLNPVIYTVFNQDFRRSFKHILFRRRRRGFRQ
The experiment can be described thus: Cellular functional assay, adrenergic α2C receptor (agonism/antagonism). It counts as cell-based. To be noted: for activation at 1 µM: read-out: α2C −ag [%]; for inhibition at 1 µM: read-out: α2C −antag. [%]. The protocol: (§1) The compounds were tested at the concentration of 1×10^−6M.
(§2) In the Tables ag refers to agonism, and antag to antagonism).

For experiment [2], the target named is histaminergic H1 receptor (Homo sapiens, UniProt P35367). Briefly: Binding assay H1 (h), [3H]pyrilamine, HEK-293 cells. Details: expressed in transfected cells; host or cells: HEK-293 cells. To be noted: read-out: H1 [%]. In outline: (§3)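 Tested at 1×10^−6 M. Specific binding: total minus binding remaining with excess cold ligand. Detection: scintillation counting.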

Experiment [3] deals with sigma σ receptor. The experiment can be described thus: Binding assay σ (non-selective), [3H]DTG, rat cerebral cortex. The conditions noted are these: percent inhibition of control specific binding; compounds tested at 1×10^−6 M. In outline: as §3
For experiment [4], the target named is T1, adrenergic α2C receptor. The experiment can be described thus: Binding assay α2C (h), [3H]RX 821002, CHO cells. The arrangement: expressed in transfected cells; host or cells: CHO cells. To be noted: read-out: α2C [%]. In outline:
as §3

Experiment [5] has as its target T2, adrenergic α1A receptor (Homo sapiens, UniProt P35348).
T2 sequence (P35348 1-466): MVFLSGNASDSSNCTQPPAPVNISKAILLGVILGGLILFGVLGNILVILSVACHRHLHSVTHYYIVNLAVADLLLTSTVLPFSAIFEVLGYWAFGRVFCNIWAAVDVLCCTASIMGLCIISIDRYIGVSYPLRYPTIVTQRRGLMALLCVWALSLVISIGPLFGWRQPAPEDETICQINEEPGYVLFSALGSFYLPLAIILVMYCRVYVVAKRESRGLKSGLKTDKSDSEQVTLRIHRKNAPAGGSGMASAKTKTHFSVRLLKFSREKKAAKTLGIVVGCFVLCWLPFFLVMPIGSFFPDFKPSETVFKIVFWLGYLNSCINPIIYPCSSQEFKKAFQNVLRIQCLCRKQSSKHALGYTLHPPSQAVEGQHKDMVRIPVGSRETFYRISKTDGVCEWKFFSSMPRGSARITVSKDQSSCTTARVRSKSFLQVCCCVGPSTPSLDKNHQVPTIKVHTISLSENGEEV
The experiment can be described thus: Cellular functional assay, adrenergic α1A receptor (agonism/antagonism). The conditions noted are these: for activation at 1 µM: read-out: α1A -ag [%]; for inhibition at 1 µM: read-out: α1A -antag. [%]. It counts as cell-based. The protocol:
[…]. The compounds were tested at the concentration of 1×10^−6M.
Conditions and methodology (by reference to the literature) of cellular functional assays are given in Table 13 and the tests results for representative compounds are given in Table 14 (dopaminergic receptor D2), in Table 15 (dopaminergic receptor D3), in Table 16 (serotoninergic receptor 5-HT1A), in Table 17 (serotoninergic receptor 5-HT2A), in Table 18 (serotoninergic receptor 5-HT6), in Table 19 (serotoninergic receptor 5-HT7), in Table 20 (adrenergic α1 receptor), in Table 21 (adrenergic α2C receptor), in Table 22 (histaminergic H1 receptor) and in Table 23 (serotoninergic 5-HT2C receptor). In the Tables ag refers to agonism, and antag to antagonism).

Experiment [6] addresses serotoninergic 5-HT7 receptor (Homo sapiens, UniProt P34969). The experiment can be described thus: Cellular functional assay, serotoninergic 5-HT7 receptor (agonism/antagonism). It counts as cell-based. The conditions noted are these: for activation at 1 µM: read-out: 5-HT7-ag [%]; for inhibition at 1 µM: read-out: 5-HT7-antag. [%]. The protocol: as §1, §2
The target of experiment [7] is T3, dopaminergic D2 receptor (Homo sapiens, UniProt P14416). Briefly: Cellular functional assay, dopaminergic D2 receptor (agonism/antagonism). Type of experiment: cell-based. As to the method:
as §1, §2
Target sequence in this assay (P14416 whole entry): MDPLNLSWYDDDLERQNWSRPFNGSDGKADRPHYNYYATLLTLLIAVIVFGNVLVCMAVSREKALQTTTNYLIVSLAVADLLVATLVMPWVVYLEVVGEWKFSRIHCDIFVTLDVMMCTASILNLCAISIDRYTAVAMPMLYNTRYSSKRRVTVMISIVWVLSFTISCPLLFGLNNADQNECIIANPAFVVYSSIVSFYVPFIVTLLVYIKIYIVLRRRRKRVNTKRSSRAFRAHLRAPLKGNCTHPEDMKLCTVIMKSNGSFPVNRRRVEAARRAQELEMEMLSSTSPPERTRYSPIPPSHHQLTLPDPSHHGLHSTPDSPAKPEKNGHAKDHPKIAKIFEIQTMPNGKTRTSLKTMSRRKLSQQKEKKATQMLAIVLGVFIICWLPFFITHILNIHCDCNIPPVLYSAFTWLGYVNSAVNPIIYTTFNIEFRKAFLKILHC

Experiment [8] concerns the target T3, dopaminergic D2 receptor. The experiment can be described thus: Binding assay D2S (h), [3H]methyl-spiperone, HEK-293 cells. The arrangement: expressed in transfected cells; host or cells: HEK-293 cells. To be noted: read-out: D2 [%]. In outline: as §3
Target sequence in this assay (P14416 1-414 isoform P14416-2): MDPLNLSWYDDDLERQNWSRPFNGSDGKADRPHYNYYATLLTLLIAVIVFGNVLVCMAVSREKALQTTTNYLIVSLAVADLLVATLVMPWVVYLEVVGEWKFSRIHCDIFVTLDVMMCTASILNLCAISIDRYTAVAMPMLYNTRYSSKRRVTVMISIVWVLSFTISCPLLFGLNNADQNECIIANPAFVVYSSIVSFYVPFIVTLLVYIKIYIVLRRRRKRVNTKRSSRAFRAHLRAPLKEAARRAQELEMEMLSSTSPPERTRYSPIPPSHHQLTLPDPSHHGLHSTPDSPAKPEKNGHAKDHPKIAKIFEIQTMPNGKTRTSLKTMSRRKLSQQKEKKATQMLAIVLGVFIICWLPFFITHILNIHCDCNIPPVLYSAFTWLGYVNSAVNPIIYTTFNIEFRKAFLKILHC
Experiment [9] concerns the target T4, muscarinic M3 receptor (Homo sapiens, UniProt P20309).
T4 construct: expressed in transfected cells; host or cells: CHO cells
Briefly: Binding assay M3 (h), [3H]4-DAMP, CHO cells. The conditions noted are these: read-out: M3 [%]. In outline:
as §3

Experiment [10] deals with T5, serotoninergic 5-HT1A receptor (Homo sapiens, UniProt P08908).
T5 sequence (P08908 1-422): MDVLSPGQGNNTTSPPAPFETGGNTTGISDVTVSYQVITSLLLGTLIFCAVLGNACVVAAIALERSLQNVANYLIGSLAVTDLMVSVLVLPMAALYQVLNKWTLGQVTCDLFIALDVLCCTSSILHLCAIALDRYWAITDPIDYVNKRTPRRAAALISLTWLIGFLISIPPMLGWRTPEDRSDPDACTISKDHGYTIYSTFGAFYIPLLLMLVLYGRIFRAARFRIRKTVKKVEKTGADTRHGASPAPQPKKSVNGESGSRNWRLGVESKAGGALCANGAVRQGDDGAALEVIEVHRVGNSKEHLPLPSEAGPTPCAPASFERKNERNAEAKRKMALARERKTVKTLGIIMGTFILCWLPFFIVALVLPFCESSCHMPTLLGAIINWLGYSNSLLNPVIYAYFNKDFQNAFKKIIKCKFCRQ
The experiment can be described thus: Binding assay 5-HT1A (h), [3H]8-OH-DPAT, HEK-293 cells. The arrangement: expressed in transfected cells; host or cells: HEK-293 cells. The conditions noted are these: read-out: 5-HT1A. In outline: as §3

Setting [11] is: agonist effect, percent of control specific agonist response, compounds tested at 1×10^−6M.
Setting [12] is: HEK293; agonist effect, percent of control specific agonist response (3 μM dopamine for control); 1×10^−6 M; D2S (h), HEK-293 cells; read-out: D2-ag [%].
Where [13] appears, read: HEK293; read-out: D2-antag. [%].

Read-outs that look alike come from different tables or passages of the source.

Sequence of histaminergic H1 receptor (P35367 whole entry): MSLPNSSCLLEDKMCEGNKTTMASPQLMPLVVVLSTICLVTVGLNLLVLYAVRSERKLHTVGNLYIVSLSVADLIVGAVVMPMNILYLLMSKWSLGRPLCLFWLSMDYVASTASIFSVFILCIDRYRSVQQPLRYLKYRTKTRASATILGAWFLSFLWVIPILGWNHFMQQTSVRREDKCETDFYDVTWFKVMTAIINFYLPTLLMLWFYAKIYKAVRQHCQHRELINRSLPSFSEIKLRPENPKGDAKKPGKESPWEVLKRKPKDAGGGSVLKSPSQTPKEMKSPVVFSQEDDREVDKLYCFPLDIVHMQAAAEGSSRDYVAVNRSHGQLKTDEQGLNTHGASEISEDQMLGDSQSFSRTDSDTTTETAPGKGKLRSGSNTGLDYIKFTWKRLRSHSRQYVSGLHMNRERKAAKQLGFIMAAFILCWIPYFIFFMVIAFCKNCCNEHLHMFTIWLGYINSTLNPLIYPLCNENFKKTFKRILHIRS
T4 sequence (P20309 whole entry): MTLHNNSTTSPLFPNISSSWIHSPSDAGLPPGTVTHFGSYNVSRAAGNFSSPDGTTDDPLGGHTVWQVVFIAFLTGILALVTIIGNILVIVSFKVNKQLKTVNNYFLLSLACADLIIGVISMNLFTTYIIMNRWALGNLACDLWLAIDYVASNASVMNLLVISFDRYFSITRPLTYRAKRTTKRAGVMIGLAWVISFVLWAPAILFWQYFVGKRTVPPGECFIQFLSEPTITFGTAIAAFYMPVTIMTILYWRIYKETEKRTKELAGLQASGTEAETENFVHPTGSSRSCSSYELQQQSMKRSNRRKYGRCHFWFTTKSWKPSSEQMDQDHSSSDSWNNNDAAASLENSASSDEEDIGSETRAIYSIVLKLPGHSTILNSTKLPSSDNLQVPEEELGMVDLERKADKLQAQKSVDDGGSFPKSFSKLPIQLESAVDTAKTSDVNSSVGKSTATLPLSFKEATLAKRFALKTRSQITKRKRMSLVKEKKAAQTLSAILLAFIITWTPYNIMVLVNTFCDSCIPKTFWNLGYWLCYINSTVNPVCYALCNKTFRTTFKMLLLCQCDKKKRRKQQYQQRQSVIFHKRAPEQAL
Sequence of serotoninergic 5-HT7 receptor (P34969 whole entry): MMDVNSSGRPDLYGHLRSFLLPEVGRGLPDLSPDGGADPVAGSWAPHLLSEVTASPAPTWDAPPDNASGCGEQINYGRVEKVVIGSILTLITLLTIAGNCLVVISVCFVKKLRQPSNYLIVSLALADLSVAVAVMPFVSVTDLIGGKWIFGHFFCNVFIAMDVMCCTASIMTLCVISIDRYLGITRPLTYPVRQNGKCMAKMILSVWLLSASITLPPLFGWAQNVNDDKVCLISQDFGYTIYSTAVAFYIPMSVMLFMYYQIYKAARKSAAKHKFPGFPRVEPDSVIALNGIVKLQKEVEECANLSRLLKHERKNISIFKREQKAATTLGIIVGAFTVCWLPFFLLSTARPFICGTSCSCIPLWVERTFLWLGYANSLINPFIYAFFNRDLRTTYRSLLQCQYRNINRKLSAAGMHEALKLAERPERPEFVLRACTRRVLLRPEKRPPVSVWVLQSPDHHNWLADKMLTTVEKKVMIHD

Consider `O=S(=O)(NCCCCN1CCN(c2nsc3ccccc23)CC1)c1cccc2ccccc12` [Compound 1, N-(4-(4-(1,2-Benzothiazol-3-yl)piperazin-1-yl)butyl)naphthalene-1-sulphonamide], for which the activation at 1 µM in experiment [1] (setting [11]) is -9%; in experiment [5] (setting [11]), 0%; in [6] (setting [11]), -1%; in experiment [7] (setting [12]), -1%. Moreover, the inhibition at 1 µM in experiment [1] was found to be 7%; in experiment [2] it was 91%; in [4], 100%; in [5] it was 100%; in experiment [6], 97%; in [7] (setting [13]), 95%. Besides, the figures for the inhibition at 1 µM in [8], in experiment [9] and in experiment [10] were 97%, 13% and 96%, respectively. For the same compound, the “σ [%]” value in [3] was found to be 54%.
Take `O=S(=O)(NCCCCN1CCN(c2nsc3ccccc23)CC1)c1ccc2ccccc2c1` [Compound 2, N-(4-(4-(1,2-Benzothiazol-3-yl)piperazin-1-yl)butyl)naphthalene-2-sulphonamide]: the activation at 1 µM is -8% in experiment [1]; 0% in [5]; -1% in [6]; 2% in experiment [7] (HEK293, read-out: D2-ag [%]). The inhibition at 1 µM in experiment [1] is 30%; in experiment [2], 94%; in experiment [4] it was 101%; in experiment [5], 100%; in experiment [6] it was 80%; in experiment [7] (HEK293, read-out: D2-antag. [%]), 97%. The inhibition at 1 µM in [8] stood at 98%; in experiment [9], 17%; in experiment [10], 99%. In [3], the “σ [%]” value is listed as 65%.
With `Cc1cccc(S(=O)(=O)NCCCN2CCN(c3nsc4ccccc34)CC2)c1` [Compound 7, N-(3-(4-(1,2-Benzothiazol-3-yl)piperazin-1-yl)propyl)-3-methylbenzenesulphonamide], the activation at 1 µM in experiment [1] (setting [11]) was -6%; in [5] (setting [11]), 0%; in [6] (setting [11]), -1%; in experiment [7] (setting [12]), 0%. In addition, the inhibition at 1 µM in experiment [1] stood at 2%; in experiment [2] it was 93%; in experiment [4] it was 96%; in experiment [5], 100%; in [6], 98%; in [7] (setting [13]), 91%. The inhibition at 1 µM in experiment [8] is 95%; in experiment [9] it was 13%; in experiment [10], 99%. Further, in experiment [3], the “σ [%]” value is listed as 61%.
For the compound `O=S(=O)(NCCCCN1CCC(c2noc3cc(F)ccc23)CC1)c1ccc2ccccc2c1` [Compound 18, N-[4-[4-(6-Fluoro-1,2-benzoxazol-3-yl)piperidin-1-yl]butyl]naphthalene-2-sulphonamide], the activation at 1 µM was -10% in experiment [1] (setting [11]), 0% in experiment [5] (setting [11]), -1% in experiment [6] (setting [11]) and -1% in [7] (setting [12]). The inhibition at 1 µM in experiment [1] amounted to 28%; in experiment [2], 79%; in experiment [4], 100%; in experiment [5], 99%; in experiment [6], 89%; in experiment [7] (setting [13]), 98%. Moreover, the results for the inhibition at 1 µM in [8], in experiment [9] and in experiment [10] were 98%, 6% and 81%, respectively.
Turning to `O=S(=O)(NCCCN1CCC(c2noc3cc(F)ccc23)CC1)c1ccc2cc(Cl)ccc2c1` [Compound 98, 6-Chloro-N-[3-[4-(6-fluoro-1,2-benzoxazol-3-yl)piperidin-1-yl]propyl]naphthalene-2-sulphonamide], the activation at 1 µM in experiment [1] (setting [11]) was -1%; in experiment [5] (setting [11]), 0%; in experiment [6] (setting [11]) it was -2%; in [7] (setting [12]), 4%. Besides, the inhibition at 1 µM is 16% in experiment [1]; 100% in experiment [2]; 108% in experiment [4]; 99% in [5]; 92% in [6]; 80% in [7] (setting [13]). Moreover, the inhibition at 1 µM in experiment [8] amounted to 101%; in [9], 16%; in experiment [10], 80%.
For `O=S(=O)(NCCCN1CCC(c2noc3cc(F)ccc23)CC1)c1ccc(F)c(Cl)c1` [Compound 331, 3-Chloro-4-fluoro-N-[3-[4-(6-fluoro-1,2-benzoxazol-3-yl)piperidin-1-yl]propyl]benzenesulphonamide], the activation at 1 µM in [1] (setting [11]) is -14%; in [5] (setting [11]), 1%; in experiment [6] (setting [11]), -2%; in [7] (setting [12]), 4%. The inhibition at 1 µM amounted to 7% in experiment [1]; 97% in experiment [2]; 104% in experiment [4]; 100% in experiment [5]; 102% in [6]; 87% in experiment [7] (setting [13]). In addition, the inhibition at 1 µM in experiment [8] was determined as 100%; in experiment [9] it was 10%; in experiment [10], 82%.
